System: influenza virus
Assay: resistance inducing effect of CLA against viral airway infections in rats exposed intranasally to influenza virus
Assay type: in vivo
Conditions: rats fed 1% CLA (FFA) for 5 weeks before intranasal influenza exposure; FIG. 1

Conjugated Linoleic Acid [CLA] was tested. Which lungweight did it give?
Its lungweight is “increased”.
